The results in this text go back to patent publication US20240166664A1, “TRIHETEROCYCLIC COMPOUND, PREPARATION METHOD THEREFOR, AND APPLICATION THEREOF” (SHANGHAI APEIRON THERAPEUTICS COMPANY LIMITED, priority 2021, published 2024).

Test [1] deals with T1, PARP7 (Homo sapiens, UniProt Q7Z3E1).
T1 construct: purchased BPS 80527
T1 sequence (Q7Z3E1 1-657): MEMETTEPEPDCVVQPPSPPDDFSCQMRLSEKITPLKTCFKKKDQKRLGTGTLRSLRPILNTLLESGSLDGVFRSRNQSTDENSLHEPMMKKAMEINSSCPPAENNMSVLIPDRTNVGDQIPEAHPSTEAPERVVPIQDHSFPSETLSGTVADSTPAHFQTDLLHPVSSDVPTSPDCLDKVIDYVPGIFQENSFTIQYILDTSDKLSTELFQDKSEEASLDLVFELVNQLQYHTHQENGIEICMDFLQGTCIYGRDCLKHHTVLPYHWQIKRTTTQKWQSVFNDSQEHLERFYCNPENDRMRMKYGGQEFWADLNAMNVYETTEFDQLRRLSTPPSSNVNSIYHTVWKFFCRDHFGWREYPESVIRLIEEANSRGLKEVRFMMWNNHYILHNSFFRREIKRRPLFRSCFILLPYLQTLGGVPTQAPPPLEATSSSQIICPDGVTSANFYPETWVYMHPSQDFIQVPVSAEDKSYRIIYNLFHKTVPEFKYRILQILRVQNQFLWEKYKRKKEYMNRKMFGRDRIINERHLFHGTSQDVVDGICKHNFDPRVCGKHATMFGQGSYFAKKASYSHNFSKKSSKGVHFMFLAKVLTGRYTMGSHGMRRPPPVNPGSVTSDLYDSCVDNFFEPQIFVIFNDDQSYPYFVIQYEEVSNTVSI
The experiment in a line: Test of inhibitory activity against PARP7 enzyme (PARP7 FLAG-tag, Probe A, time-resolved fluorescence). Format: biochemical. Particulars: PARP7 12 nM, Probe A 2 nM, 1 hr room temperature.

For test [2], the system named is NCI-H1373 cells. The experiment in a line: Cell proliferation inhibition assay (CTG method). Format: cell-based, human. As to conditions: Homo sapiens, NCI-H1373, 144 h, NCI-H1373 cells, 6 days incubation, CTG method; read-out: IC50 (nM) for NCI-H1373 cell viability.

Broadly, the IC50 is the concentration at which inhibition is half-maximal. Turning to `C[C@@H](COCCC(=O)N1CCN2c3ncc(C(F)(F)F)cc3C(=O)OC[C@@H]2C1)Nc1cn[nH]c(=O)c1C(F)(F)F` [Compound 4, (S)-9-(3-((S)-2-((6-oxo-5-(trifluoromethyl)-1,6-dihydropyridazin-4-yl)amino)propoxy)propionyl)-3-(trifluoromethyl)-7,7a, 8,9,10,11-hexahydro-5H-pyrazino[2,1-c]pyrido[2,3-e][1,4]oxazin-5-one], the results for the IC50 in test [1] and in test [2] were under 10 nM and over 5000 nM, respectively.

As to `C[C@@H](COCCC(=O)N1CCN2c3ncc(C(F)(F)F)cc3NC[C@H]2C1)Nc1cn[nH]c(=O)c1C(F)(F)F` [Compound 9], the IC50 in test [1] is under 10 nM; in test [2], 500 to 5000 nM.

`C[C@@H](COCCC(=O)N1CCN2c3ncc(C(F)(F)F)cc3CNC[C@H]2C1)Nc1cn[nH]c(=O)c1C(F)(F)F` [Compound 10]: the IC50 in test [1] was under 10 nM; in test [2], 100 to 500 nM.

In the case of `C[C@@H](COCCC(=O)N1CCN2c3ncc(C(F)(F)F)cc3CN(C#N)C[C@H]2C1)Nc1cn[nH]c(=O)c1C(F)(F)F` [Compound 11], the IC50 in test [1] is under 10 nM; in test [2], 500 to 5000 nM.

Turning to `C[C@@H](COCCC(=O)N1CCN2c3ncc(C(F)(F)F)cc3CSC[C@H]2C1)Nc1cn[nH]c(=O)c1C(F)(F)F` [Compound 12, 5-(((S)-1-(3-oxo-3-((R)-3-(trifluoromethyl)-7a, 8,10,11-tetrahydro-5H-pyrazino[2,1-c]pyrido[2,3-e][1,4]thiazin-9(7H)-yl)propoxy)prop-2-yl)amino)-4-(trifluoromethyl)pyridazin-3(2H)-one], the IC50 in test [1] is under 10 nM; in test [2] it was under 100 nM.

Consider `C[C@@H](COCCC(=O)N1CCN2c3ncc(C(F)(F)F)nc3OC[C@H]2C1)Nc1cn[nH]c(=O)c1C(F)(F)F` [Compound 14], for which the figures for the IC50 in test [1] and in test [2] were under 10 nM and 100 to 500 nM, respectively.

`C[C@@H](COCCC(=O)N1CCN2c3ncc(C(F)(F)F)cc3C[S+]([O-])C[C@H]2C1)Nc1cn[nH]c(=O)c1C(F)(F)F` (stereo partly drawn) [Compound 15, 5-(((2S)-1-(3-((7aR)-6-oxo-3-(trifluoromethyl)-7a, 8,10,11-tetrahydro-5H-pyrazino[2,1-c]pyrido[2,3-e][1,4]thiazin-9(7H)-yl)-3-oxopropoxy)prop-2-yl)amino)-4-(trifluoromethyl)pyridazin-3(2H)-one]: the IC50 in test [1] is under 10 nM; in test [2], 500 to 5000 nM.

Turning to `C[C@@H](COCCC(=O)N1CCN2C(=O)c3ncc(C(F)(F)F)cc3OC[C@H]2C1)Nc1cn[nH]c(=O)c1C(F)(F)F` [Compound 16, (R)-8-(3-((S)-2-((6-oxo-5-(trifluoromethyl)-1,6-dihydropyridazin-4-yl)amino)propoxy)propionyl)-3-(trifluoromethyl)-6,6a, 7,8,9,10-hexahydro-12H-pyrazino[2,1-c]pyrido[2,3-f][1,4]oxazepin-12-one], the half-inhibitory concentration (IC50) is 10 to 100 nM in test [1] and over 5000 nM in test [2].

For `C[C@@H](COCCC(=O)N1CCN2C(=O)c3ncc(C(F)(F)F)cc3OC[C@@H]2C1)Nc1cn[nH]c(=O)c1C(F)(F)F` [Compound 17, (S)-8-(3-((S)-2-((6-oxo-5-(trifluoromethyl)-1,6-dihydropyridazin-4-yl)amino)propoxy)propionyl)-3-(trifluoromethyl)-6,6a, 7,8,9,10-hexahydro-12H-pyrazino[2,1-c]pyrido[2,3-f][1,4]oxazepin-12-one], the IC50 in test [1] was 10 to 100 nM; in test [2], over 5000 nM.

Take `C[C@@H](COCCC(=O)N1CCN2Cc3ncc(C(F)(F)F)cc3OC[C@H]2C1)Nc1cn[nH]c(=O)c1C(F)(F)F` [Compound 18, 5-(((S)-1-(3-oxo-3-((R)-3-(trifluoromethyl)-6a, 7,9,10-tetrahydro-12H-pyrazino[2,1-c]pyrido[2,3-f][1,4]oxazepin-8(6H)-yl)propoxy)prop-2-yl)amino)-4-(trifluoromethyl)pyridazin-3(2H)-one]: the IC50 was 10 to 100 nM in test [1] and over 5000 nM in test [2].

Take `C[C@@H](COCCC(=O)N1CCN2Cc3ncc(C(F)(F)F)cc3OC[C@@H]2C1)Nc1cn[nH]c(=O)c1C(F)(F)F` [Compound 19, 5-(((S)-1-(3-oxo-3-((S)-3-(trifluoromethyl)-6a, 7,9,10-tetrahydro-12H-pyrazino[2,1-c]pyrido[2,3-f][1,4]oxazepin-8(6H)-yl)propoxy)prop-2-yl)amino)-4-(trifluoromethyl)pyridazin-3(2H)-one]: the IC50 in test [1] is 100 to 500 nM; in test [2], over 5000 nM.

`C[C@@H](COCCC(=O)N1CCN2c3ncc(F)cc3COC[C@H]2C1)Nc1cn[nH]c(=O)c1C(F)(F)F` [Compound 20, (R)-9-(3-((S)-2-((6-oxo-5-(trifluoromethyl)-1,6-dihydropyridazin-4-yl)amino)propoxy)propionyl)-3-fluoro-7,7a, 8,9,10,11-hexahydro-5H-pyrazino[2,1-c]pyrido[2,3-e][1,4]oxazin-5-one]: the IC50 was over 500 nM in test [1] and over 5000 nM in test [2].

On to `C[C@@H](COCCC(=O)N1CCN2c3ncc(C(F)(F)F)cc3CS(=O)(=O)C[C@H]2C1)Nc1cn[nH]c(=O)c1C(F)(F)F` [Compound 22], for which the figures for the IC50 in test [1] and in test [2] were under 10 nM and 500 to 5000 nM, respectively.

Consider `C[C@@H](COCCC(=O)N1CCN2c3ncc(C(F)(F)F)cc3CN(C)C[C@H]2C1)Nc1cn[nH]c(=O)c1C(F)(F)F` [Compound 23, 5-(((S)-1-(3-((S)-6-methyl-3-(trifluoromethyl)-6,7,7a, 8,10,11-octahydropyrazino[1,2-a]pyrido[3,2-f][1,4]Diazepin-9(5H)-yl)-3-propoxy)prop-2-yl)amino)-4-(trifluoromethyl) pyridazin-3(2H)-one], for which the IC50 in test [1] is under 10 nM; in test [2], 100 to 500 nM.

As to `C[C@@H]1CN2c3ncc(C(F)(F)F)cc3COC[C@H]2CN1C(=O)CCOC[C@H](C)Nc1cn[nH]c(=O)c1C(F)(F)F` [Compound 25, 5-(((S)-1-(3-((6aR,9R)-9-methyl-3-(trifluoromethyl)-6a, 7,9,10-tetrahydropyrazino[1,2-d]pyrido[3,2-b][1,4]oxazin-8(6H)-yl)-3-oxypropoxy)prop-2-yl)amino)-4-(trifluoromethyl)pyridazin-3(2H)-one], the IC50 is under 10 nM in test [1] and 100 to 500 nM in test [2].

As for `CC1SC[C@H]2CN(C(=O)CCOC[C@H](C)Nc3cn[nH]c(=O)c3C(F)(F)F)CCN2c2ncc(C(F)(F)F)cc21` (some centres unmarked) [Compound 27], the IC50 was under 10 nM in test [1] and 500 to 5000 nM in test [2].

In the case of `C[C@@H](COCCC(=O)N1CCN2c3ncc(C(F)(F)F)cc3OCC[C@H]2C1)Nc1cn[nH]c(=O)c1C(F)(F)F` [Compound 29, 5-(((S)-1-(3-oxo-3-((S)-3-(trifluoromethyl)-6,7,7a, 8,10,11-hexahydro-9H-pyrazino[1,2-d]pyrido[3,2-b][1,4]oxazepan-9-yl)propoxy)prop-2-yl)amino)-4-(trifluoromethyl)pyridazin-3(2H)-one], the IC50 was under 10 nM in test [1] and under 100 nM in test [2].

Turning to `C[C@@H](COCCC(=O)N1CCN2c3ncc(C(F)(F)F)cc3N(C3CC3)C(=O)[C@@H]2C1)Nc1cn[nH]c(=O)c1C(F)(F)F` [Compound 30, (s)-5-cyclopropyl-8-(3-((S)-2-((6-oxo-5-(trifluoromethyl)-1,6-dihydropyridazin-4-yl)amino)propoxy)propionyl)-3-(trifluoromethyl)-7,8,9,10-tetrahydro-5H-pyrazino[1,2-a]pyrido[3,2-e]pyrazin-6(6aH)-one], the IC50 in test [1] is under 10 nM; in test [2] it was 100 to 500 nM.

Regarding `Cc1nc2c(cc1C(F)(F)F)COC[C@H]1CN(C(=O)CCOC[C@H](C)Nc3cn[nH]c(=O)c3C(F)(F)F)CCN21` [Compound 31], the values for the IC50 in test [1] and in test [2] were under 10 nM and 500 to 5000 nM, respectively.

Turning to `C[C@@H](COCCC(=O)N1CCN2c3ncc(C(F)(F)F)cc3CCC2C1)Nc1cn[nH]c(=O)c1C(F)(F)F` (some centres unmarked) [Compound 32], the IC50 in test [1] was under 10 nM; in test [2], under 100 nM.

On to `C[C@@H](COCCC(=O)N1CCN2c3ncc(C(F)(F)F)nc3OC[C@@H]2C1)Nc1cn[nH]c(=O)c1C(F)(F)F` [Compound 34, 5-(((S)-1-(3-oxo-3-((S)-3-(trifluoromethyl)-6a, 7,9,10-tetrahydrobipyrazino[2,3-b: 1′,2′-d][1,4]oxazin-8(6H)-yl)propoxy)prop-2-yl)amino)-4-(trifluoromethyl)pyridazin-3(2H)-one], for which the results for the IC50 in test [1] and in test [2] were under 10 nM and 500 to 5000 nM, respectively.

Consider `C[C@@H](COCCC(=O)N1CCN2c3ncc(C(F)(F)F)cc3NCC[C@H]2C1)Nc1cn[nH]c(=O)c1C(F)(F)F` [Compound 35, 5-(((S)-1-(3-oxo-3-((S)-3-(trifluoromethyl)-6,7,7a, 8,10,11-hexahydropyrazino[1,2-d]pyrido[3,2-b][1,4]diazepine-9(5H)-yl)propoxy)prop-2-yl)amino)-4-(trifluoromethyl)pyridazin-3(2H)-one], for which the results for the IC50 in test [1] and in test [2] were under 10 nM and under 100 nM, respectively.
